B1: SEK1 (K54R): dominant negative mutant of SEK1, known to specifically block JNK activation; expressed from a vector (protein, UniProt P45985 2-399, looked up, variant K54R)
Dual specificity …: AAPSPSGGGGSGGGSGSGTPGPVGSPAPGHPAVSSMQGKRKALKLNFANPPFRSTARFTLNPNPTGVQNPHIERLRTHSIESSGKLKISPEQHWDFTAEDLKDLGEIGRGAYGSVNKMVHKPSGQIMAVKRIRSTVDEKEQKQLLMDLDVVMRSSDCPYIVQFYGALFREGDCWICMELMSTSFDKFYKYVYSVLDDVIPEEILGKITLATVKALNHLKENLKIIHRDIKPSNILLDRSGNIKLCDFGISGQLVDSIAKTRDAGCRPYMAPERIDPSASRQGYDVRSDVWSLGITLYELATGRFPYPKWNSVFDQLTQVVKGDPPQLSNSEEREFSPSFINFVNLCLTKDESKRPKYKELLKHPFILMYEERAVEVACYVCKILDQMPATPSSPMYVD
modifications: expressed from vector; dominant negative

Columns and labels:
NMDA receptor = settings: rats given glutamate, quinolinic acid or kainic acid; cited from earlier work
JNK = JNK activity in HN33 cell lysates (GST-c-Jun phosphorylation, Western blot); type: cell-based, rat; settings: glutamate 250 μM or kainic acid 200 μM, room temperature, 15 minutes
HN33 cells [1] = settings: for induction of apoptotic cell death of HN33 cells: glutamate 250 μM or kainic acid 200 μM
HN33 cells [2] = assay: TUNEL assay of apoptosis induced by expression of MLK2 in HN33 cells; type: cell-based, rat; settings: co-transfection with wild-type MLK2; 48 hours after transfection
Text: To examine whether expression of MLK2 induces neuronal cell death, HN33 cells were transfected with pRK5CMV, wild-type or kinase dead MLK2 expression vector using lipofectin (Boehringer Mannheim) according to manufacture instruction. Forty-eight hours after transfection, cells were fixed and stained with TUNEL, as described above. TUNEL negative cells (living cells) were counted.
To determine whether the role of the SEK1-JNK signal transduction pathway in neuronal cell death induced by expression of MLK2, HN33 cells were co-transfected with pEBG+pRK5CMV (control), wild-type SEK1 expression vector+wild-type MLK2 expression vector, or dominant negative mutant SEK1 (K54R) expression vector+wild-type MLK2 expression vector. Forty-eight hours after transfection, cells were fixed and stained with TUNEL. TUNEL negative cells (living cells) were counted.

HN33 cells [3] = assay: TUNEL assay of apoptosis induced by expression of APP-C-100 in HN33 cells; type: cell-based, rat; settings: 48 hours after transfection
Text: To determine the role of activation of the SEK1-JNK signal transduction pathway in Alzheimer's diseases, a cDNA fragment encoding the full-length (Kang, J., et al., Nature, 325:733-736 (1987)) or the last C-terminal 100 amino acid of amyloid precursor protein (APP) was inserted into pcDNA1 and the resulting plasmid was designated as APP-C-100. HN33 cells (60% of confluence) was transfected with pcDNA1 (control), wild-type APP, APP-C-100 by using lipofectin (Boehringer Mannheim) according to manufacture instruction. Thirty μl of lipofectin/50 mm plate was used in all transfection experiments. Twelve to seventy-two hours after transfection, HN33 cells were fixed with 4% paraformaldehyde and permeabilized with 0.1% of Triton X-100. […] TUNEL negative cells were counted under light microscope.
To further determine the role of activation of the JNK activation in Alzheimer's diseases, HN33 cells were transfected with pcDNA1, wild-type APP expression vector, or mutant SEK1 expression vector using lipofectin (Boehringer Mannheim) according to manufacture instruction. […] TUNEL negative cells (living cells) were counted.
To determine further the role of activation of the MLK activation in Alzheimer's diseases, HN33 cells were co-transfected with pcDNA1, wild-type expression vector, with kinase dead MLK2 expression vector. […] TUNEL negative cells (living cells) were counted.

Molecule	JNK activity (JNK)	induction of apoptotic cell death of HN33 cells (HN33 cells [1])	further results
C[C@]12N[C@H](Cc3ccccc31)c1ccccc12 [MK-801]	–	–	induction of c-Jun expression and neuronal apoptosis (NMDA receptor): blocked
N[C@@H](CCC(=O)O)C(=O)O [glutamate]	induced elevation of the JNK activity	apoptotic cell death	–
C=C(C)[C@H]1CN[C@H](C(=O)O)[C@H]1CC(=O)O [kainic acid]	induced elevation of the JNK activity	apoptotic cell death	–
B1	–	–	apoptosis induced by MLK expression, effect of co-expression (HN33 cells [2]): attenuated; apoptosis induced by glutamate or kainate receptor activation, effect of expression (HN33 cells [1]; 250 μM glutamate or 200 μM kainate for six hours, 48 hours after transfection): blocks; apoptosis induced by expression of APP-C-100, effect of co-expression (HN33 cells [3]): blocks

— patent US7544479B2, “Method for identifying MLK inhibitors for treatment of neurological conditions” (priority 1998, dated 2009)
